Measured values from ChEMBL document CHEMBL1649205, “CraA, a major facilitator superfamily efflux pump associated with chloramphenicol resistance in Acinetobacter baumannii” (2009).
In brackets after ≈: the same amount, converted by molar mass.

Legend:
Assay type in all cases: functional
Acinetobacter baumannii [1] = assay: Antimicrobial activity against efflux pump CraA deficient Acinetobacter baumannii JVAB01 receiving pJV103 harboring open reading frame orf3 encoded efflux pump CraA in presence of efflux pump inhibitor phenyl-arginine-beta-naphthylamide by Etest
Acinetobacter baumannii [2] = assay: Antimicrobial activity against Acinetobacter baumannii JVAB01 expressing disrupted open reading frame orf3 mutant deficient in efflux pump CraA by Etest
Acinetobacter baumannii [3] = assay: Antimicrobial activity against efflux pump CraA deficient Acinetobacter baumannii JVAB01 receiving pJV103 harboring open reading frame orf3 encoded efflux pump CraA by Etest
Acinetobacter baumannii [4] = assay: Antimicrobial activity against Acinetobacter baumannii JVAB01 expressing disrupted open reading frame orf3 mutant deficient in efflux pump CraA in presence of efflux pump inhibitor phenyl-arginine-beta-naphthylamide by Etest
Acinetobacter baumannii [5] = assay: Antimicrobial activity against Acinetobacter baumannii ATCC 19606 expressing open reading frame orf3 encoded efflux pump CraA in presence of efflux pump inhibitor phenyl-arginine-beta-naphthylamide by Etest
Acinetobacter baumannii [6] = assay: microbe, parasite or virus in culture; settings: ATCC 19606
Description: Antimicrobial activity against Acinetobacter baumannii ATCC 19606 expressing open reading frame orf3 encoded efflux pump CraA by Etest

With `O=C(N[C@H](CO)[C@H](O)c1ccc([N+](=O)[O-])cc1)C(Cl)Cl` [CHLORAMPHENICOL] the MIC (Acinetobacter baumannii [1]) was 16 mg/L, the MIC (Acinetobacter baumannii [2]) was 2 mg/L (≈ 6.19 µM) and the MIC (Acinetobacter baumannii [3]) was 192 mg/L (≈ 594 µM). For the same compound, the MIC (Acinetobacter baumannii [4]) was 1.5 mg/L, the MIC (Acinetobacter baumannii [5]) was 32 mg/L and the MIC (Acinetobacter baumannii [6]) was over 256 mg/L.
`O=C(O)c1cn(C2CC2)c2cc(N3CCNCC3)c(F)cc2c1=O` [CIPROFLOXACIN] gave an MIC (Acinetobacter baumannii [2]) of 0.25 mg/L (≈ 0.754 µM), an MIC (Acinetobacter baumannii [3]) of 0.25 mg/L (≈ 0.754 µM) and an MIC (Acinetobacter baumannii [6]) of 0.25 mg/L (≈ 0.754 µM).
In the case of `CCC[C@@H]1C[C@@H](C(=O)N[C@@H]([C@H]2O[C@H](SC)[C@H](O)[C@@H](O)[C@H]2O)[C@H](C)Cl)N(C)C1` [CLINDAMYCIN], the MIC (Acinetobacter baumannii [2]) was over 256 mg/L, the MIC (Acinetobacter baumannii [3]) was over 256 mg/L and the MIC (Acinetobacter baumannii [6]) was over 256 mg/L.
In the case of `CC[C@H]1OC(=O)[C@H](C)[C@@H](O[C@H]2C[C@@](C)(OC)[C@@H](O)[C@H](C)O2)[C@H](C)[C@@H](O[C@@H]2O[C@H](C)C[C@H](N(C)C)[C@H]2O)[C@](C)(O)C[C@@H](C)C(=O)[C@H](C)[C@@H](O)[C@]1(C)O` [ERYTHROMYCIN], the MIC (Acinetobacter baumannii [2]) was 1.5 mg/L (≈ 2.04 µM), the MIC (Acinetobacter baumannii [3]) was 1.5 mg/L (≈ 2.04 µM) and the MIC (Acinetobacter baumannii [6]) was 1.5 mg/L (≈ 2.04 µM).
`C[C@@H](O)[C@H]1C(=O)N2C(C(=O)O)=C(SCCNC=N)C[C@H]12` [IMIPENEM ANHYDROUS] was tested, and the MIC (Acinetobacter baumannii [2]) was 0.75 mg/L (≈ 2.51 µM), the MIC (Acinetobacter baumannii [3]) was 0.75 mg/L (≈ 2.51 µM) and the MIC (Acinetobacter baumannii [6]) was 0.75 mg/L (≈ 2.51 µM).
With `CCn1cc(C(=O)O)c(=O)c2ccc(C)nc21` [NALIDIXIC ACID] the MIC (Acinetobacter baumannii [2]) was 12 mg/L (≈ 51.7 µM), the MIC (Acinetobacter baumannii [3]) was 12 mg/L (≈ 51.7 µM) and the MIC (Acinetobacter baumannii [6]) was 12 mg/L (≈ 51.7 µM).
`CCn1cc(C(=O)O)c(=O)c2cc(F)c(N3CCNCC3)cc21` [NORFLOXACIN] showed an MIC (Acinetobacter baumannii [2]) of 6 mg/L (≈ 18.8 µM), an MIC (Acinetobacter baumannii [3]) of 6 mg/L (≈ 18.8 µM) and an MIC (Acinetobacter baumannii [6]) of 6 mg/L (≈ 18.8 µM).
`CN(C)[C@@H]1C(O)=C(C(N)=O)C(=O)[C@@]2(O)C(O)=C3C(=O)c4c(O)cccc4[C@@](C)(O)[C@H]3C[C@@H]12` [TETRACYCLINE] gave an MIC (Acinetobacter baumannii [2]) of 6 mg/L (≈ 13.5 µM), an MIC (Acinetobacter baumannii [3]) of 96 mg/L (≈ 216 µM) and an MIC (Acinetobacter baumannii [6]) of 6 mg/L (≈ 13.5 µM).
